# Where a SMILES comes first, the peptide text is derived from it. The star is where a group is joined. Myristoyl = CCCCCCCCCCCCCC(=O)*
# What was measured:
# Pcc [1] = assay type: cell-based, Pectobacterium carotovorum subsp. carotovorum
# Ech = settings: 48 h
# Pcc [2] = settings: 48 h
# Atu C58C1 = settings: Table 4, rich medium, up to 32 μg/ml; for MIC: 48 h, no visible growth; for MBC: spotted on rich agar 48 h, no colony
# Xcc Xcc17 = settings: Table 4, rich medium, up to 32 μg/ml; for MIC: 48 h, no visible growth; for MBC: spotted on rich agar 48 h, no colony
Compound,membranolytic effect (SYTOX Green staining) (Pcc [1]),MBC (Ech) [µg/mL],MIC (Ech) [µg/mL],MBC (Pcc [2]) [µg/mL],MIC (Pcc [2]) [µg/mL],MIC (Atu C58C1) [µg/mL],MBC (Atu C58C1) [µg/mL],MIC (Xcc Xcc17) [µg/mL],MBC (Xcc Xcc17) [µg/mL]
CCCCCCCCCCCCCC(=O)N[C@@H](Cc1c[nH]c2ccccc12)C(=O)N[C@@H](CCCCN)C(=O)N[C@@H](CCCCN)C(=O)N[C@@H](CC(C)C)C(=O)N[C@@H](CCCCN)C(=O)N[C@@H](CCCCN)C(=O)N[C@@H](CC(C)C)C(=O)N[C@@H](CC(C)C)C(=O)N[C@@H](CCCCN)C(=O)N[C@@H](CCCCN)C(=O)N[C@@H](CC(C)C)C(=O)N[C@@H](CCCCN)C(=O)N[C@@H](CCCCN)C(=O)N[C@@H](CC(C)C)C(N)=O [pepD2M] (Myristoyl-WKKLKKLLKKLKKL-NH2),significant membranolytic effect,–,–,–,–,–,–,–,–
Ac-WKKIKKIIKKIKKI-NH2 [pepI2],–,16,16,2,2,–,–,–,–
Ac-WKKLKKLLKKL-NH2 [pepD3],significant membranolytic effect,–,–,16,–,2,2,2,2
Ac-WKKLKKLLKKLKKL-NH2 [pepD2],significant membranolytic effect,–,–,16,–,2,2,1,1

# — publication PMC8514817, “De Novo Design of Antimicrobial Peptides With a Special Charge Pattern and Their Application in Combating Plant Pathogens” (Frontiers in Plant Science, 2021)
